Some test systems named below: LXFL 529 NSCLC; HOP-18 NSCLC; DMS 114 small cell lung; M19-MEL melanoma; MDA-MB-231 breast; MCF7 breast; DU-145 prostate; MDA-MB-435; T-47D breast; BT-549 breast; DLD-1 colon; SNB-78 CNS.
Holding throughout (assay): DTP human tumour cell line panel, 48 h

Each structure is given as a SMILES string.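 The compound was tested at five concentrations on cells cultured in 96-well plates, with a 48-hour exposure period. At the GI50, growth is halved. TGI marks complete inhibition of growth.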

On to `Nc1cc2c3c(cccc3c1)C(=O)N(CCN1CCN(CCN3C(=O)c4cccc5cc(N)cc(c45)C3=O)CC1)C2=O`, for which the TGI in the assay with LXFL 529 NSCLC, with HOP-18 NSCLC, in the assay with DMS 114 small cell lung and in the assay with M19-MEL melanoma was greater than 100 µM each time.
For `O=C(Nc1ccc(Cl)cc1)C(=O)C1=C(O)c2ccccc2OC1`, the TGI in the assay on MDA-MB-231 breast, in the assay on MCF7 breast, in the assay with DU-145 prostate, in the assay on MDA-MB-435, in the assay on T-47D breast and in the assay with BT-549 breast was greater than 100 µM throughout.
Take `Nc1ncn([C@@H]2C=C(CO)C(O)C2O)c(=O)n1` (some centres undefined): the TGI with LXFL 529 NSCLC, with HOP-18 NSCLC, in the assay on DLD-1 colon, with SNB-78 CNS and in the assay with M19-MEL melanoma was greater than 100 µM in each case.
Turning to `O=C1c2cccnc2-c2nc(-c3ccccc3)cc3c2c1nc1ccccc13`, the GI50 is 4.33 µM in the assay on MDA-MB-231 breast; 1.09 µM with MCF7 breast; 13.6 µM with DU-145 prostate; 1.53 µM in the assay on MDA-MB-435; 5.35 µM in the assay on T-47D breast; 5.15 µM with BT-549 breast. Besides, the TGI is greater than 100 µM with MDA-MB-231 breast; 4.11 µM in the assay with MCF7 breast; 30.2 µM in the assay on DU-145 prostate; 2.96 µM in the assay on MDA-MB-435; 44.3 µM in the assay on T-47D breast; 21.3 µM in the assay on BT-549 breast.
As to `O=C1NCC2=C1CCC1c3ccccc3CCN21` (centres undefined), the TGI with LXFL 529 NSCLC, in the assay on DLD-1 colon, in the assay with SNB-78 CNS, in the assay with DMS 114 small cell lung and with M19-MEL melanoma was greater than 100 µM throughout.
Regarding `CNS(=O)(=O)NN(C)S(=O)(=O)c1ccc(C)cc1`, the TGI in the assay with DLD-1 colon, in the assay with DMS 114 small cell lung and in the assay on M19-MEL melanoma was greater than 100 µM each time.
For `NCCCNCCCNc1nc2ccccc2c2[nH]c3ccccc3c12`, the 50% growth inhibitory concentration (GI50) in the assay with MDA-MB-231 breast was 0.142 µM; in the assay with MCF7 breast, 0.00804 µM; in the assay on DU-145 prostate it was 0.0756 µM; in the assay with MDA-MB-435, 0.581 µM; in the assay with T-47D breast it was 0.334 µM; in the assay on BT-549 breast, 1.05 µM. In addition, the TGI with MDA-MB-231 breast came out at 1.56 µM; with MCF7 breast, 1.85 µM; in the assay with DU-145 prostate, 1.51 µM; in the assay on MDA-MB-435, 2.08 µM; in the assay with T-47D breast, 2.69 µM; in the assay with BT-549 breast it was 2.4 µM.
For the compound `c1ccc(COc2ccc(Nc3ncnc4ccc(-c5ccco5)cc34)cc2)cc1`, the GI50 was 5.49 µM in the assay with MDA-MB-231 breast; 0.572 µM with MCF7 breast; 5.74 µM in the assay with DU-145 prostate; 6.83 µM in the assay on MDA-MB-435; 4.09 µM in the assay on T-47D breast; 6.87 µM in the assay with BT-549 breast. Also, the TGI in the assay with MDA-MB-231 breast is 13.7 µM; in the assay on MCF7 breast, greater than 13.5 µM; in the assay on DU-145 prostate, 24.6 µM; in the assay on MDA-MB-435, 22.3 µM; in the assay on T-47D breast, 16.8 µM; in the assay on BT-549 breast, greater than 25 µM.
Regarding `CC1(C)OCC(C2OC(On3nnc4ccc(Cl)cc43)C3OC(C)(C)OC23)O1` (centres undefined), the TGI in the assay on MDA-MB-231 breast, in the assay on MCF7 breast, with DU-145 prostate, in the assay on MDA-MB-435, with T-47D breast and in the assay with BT-549 breast was greater than 100 µM each time.
Turning to `COc1cc2c(cc1OCCCN1CCN(CCCOc3cc4c(cc3OC)C(=O)C3CCC[C@H]3C=N4)CC1)N=C[C@@H]1CCCC1C2=O` (some centres undefined), the GI50 with MDA-MB-231 breast is 8.44 µM; in the assay with MCF7 breast it was 1.44 µM; with DU-145 prostate it was 2.41 µM; in the assay on MDA-MB-435, 5.89 µM; with T-47D breast it was 15 µM; in the assay on BT-549 breast it was 1.7 µM. Also, the TGI with MDA-MB-231 breast is greater than 26.6 µM; in the assay with MCF7 breast it was greater than 100 µM; in the assay with DU-145 prostate it was greater than 100 µM; in the assay on MDA-MB-435, 30.3 µM; in the assay with T-47D breast it was greater than 100 µM; in the assay with BT-549 breast it was greater than 100 µM.
With `CC1(C)CC(C2CC(C)(C)CC(C)(C)[C@H]2O)[C@@H](O)C(C)(C)C1` (some centres undefined), the TGI in the assay with LXFL 529 NSCLC, in the assay with DMS 114 small cell lung and in the assay on M19-MEL melanoma was greater than 100 µM in each case.
Take `CCCCCNC(=O)C1C(=O)N(CCCCC)C(=O)/C1=N\N` (centres undefined): the TGI in the assay with LXFL 529 NSCLC was greater than 100 µM; in the assay on HOP-18 NSCLC it was greater than 100 µM; in the assay on DLD-1 colon it was greater than 100 µM; with SNB-78 CNS, 60 µM; in the assay with M19-MEL melanoma it was greater than 100 µM.
On to `COc1cccc(C2C3=C(COC3=O)N(CCO)c3cc4c(cc32)CCC4)c1` (centres undefined), for which the 50% growth inhibitory concentration (GI50) in the assay with MDA-MB-231 breast was 0.142 µM; in the assay with MCF7 breast it was 0.0193 µM; with DU-145 prostate, 0.0884 µM; with MDA-MB-435, 0.0131 µM; in the assay on T-47D breast it was 0.0832 µM; in the assay on BT-549 breast, 0.0819 µM. For the same compound, the TGI with MDA-MB-231 breast is 1.07 µM; in the assay with MCF7 breast, greater than 18.1 µM; in the assay on DU-145 prostate it was 0.321 µM; in the assay on MDA-MB-435, 0.0334 µM; with T-47D breast it was 36.6 µM; in the assay on BT-549 breast, 1.19 µM.
For the compound `CC1=C(C(=O)Nc2cc(F)c(F)cc2F)C(c2cccc([N+](=O)[O-])c2)C(C(=O)Nc2ccccc2C(F)(F)F)=C(C)N1` (centres undefined), the TGI in the assay on LXFL 529 NSCLC was found to be 53.1 µM; with DLD-1 colon, 94.7 µM; in the assay with SNB-78 CNS, 59.2 µM; with DMS 114 small cell lung, 57 µM; in the assay with M19-MEL melanoma it was 91.5 µM.
In the same order, the values of `CCOC(=O)C1=C(O)CSC1=Nc1ccc(N=C2SCC(O)=C2C(=O)OCC)cc1` are 57.9 µM, 50.4 µM, greater than 100 µM, 59.6 µM and 61.2 µM.
Take `OCCC#Cc1ccccc1C#Cc1ccccc1`: the GI50 was 3.41 µM in the assay with MDA-MB-231 breast; 22.7 µM with MCF7 breast; 12.5 µM with DU-145 prostate; 11.4 µM with MDA-MB-435; 39.3 µM with T-47D breast; 8.98 µM with BT-549 breast. In addition, the TGI is 16.1 µM in the assay on MDA-MB-231 breast; 46.5 µM with MCF7 breast; 26.5 µM in the assay on DU-145 prostate; 23.5 µM in the assay on MDA-MB-435; greater than 100 µM with T-47D breast; 22.3 µM with BT-549 breast.

The record behind these values is PubChem BioAssay (NCI).
